US6585953B2, “Synthesis of 17F labeled fluoroalkanes” (Wisconsin Alumni Research Foundation, priority 2000, dated 2003)

How the values were obtained:
[1] = Clearance and distribution of inhaled tracer in test subjects; type: in vivo
Description: Positron emitting ^17F (Eβ^+(max)=1.74 MeV; t½≈64 seconds) has an ideal half life for probing such diverse processes as gray matter cerebral activity or gas-phase reactions on an industrial scale. Because of the very short half life of ^17F, tracers labeled with this isotope such as ^17F labeled fluoromethane provide very short half life cerebral blood flow agents that have important application in PET studies of seizure and other transient brain phenomena. The shorter half life of ^17F with respect to ^15O permits repeat images to be obtained twice as fast with ^17F labeled tracers as compared to ^15O labeled tracers such as water which is presently in wide use as a tracer as described above. The ability to scan twice as fast using ^17F labeled tracers allows more data to be collected in the same amount of time and should allow more test subjects to be evaluated using instruments that are currently in high demand. Additionally, ^17F labeled tracers show improved signal to noise level ratios over ^15O labeled tracers providing increased sensitivity. ^15O tracers such as ^15O labeled water are usually administered in a manner that is more invasive than are tracers such as ^17F labeled fluoromethane. For example, ^15O labeled tracers are usually administered by injection and arterial measurements are then made from an arterial cannulation. On the other hand, ^17F labeled tracers such as fluoromethane may be administered by having a test subject inhale the tracer, and arterial measurements can be made from exhalations.
FIG. 5 is a gas chromatograph (Porpak Q column; He carrier gas; thermal conductivity detector, electrochemical detector, and positron coincidence radiation detector) showing the radiochemical purity of ^17F labeled fluoromethane produced by the present invention. The radiochemical purity of the ^17F labeled fluoromethane was determined to be 91 percent with only ^17F labeled CF4 from the target as a radiochemical impurity. […] Thus, the presence of CF4 only impacts the dosimetry to the lungs and trachea.

[2] = cited from earlier work

Structure (SMILES): C[17F] [^17F labeled fluoromethane]
- clearance ([1]; by exhalation): rapidly cleared by exhalation
- biological half life ([1]; in vivo): quite short

Structure (SMILES): [15OH2] [^15O labeled water]
- permeability surface product ([2]; at high flows the signal is reduced): relatively low
- clearance from test subjects ([2]; usually administered by injection): slow to clear

Structure (SMILES): FC(F)(F)F [CF4]
- distribution into blood when inhaled ([1]; inhaled as tracer impurity, only impacts dosimetry to lungs and trachea): stays out of the blood
